Legend:
[1] = tested on: HBV; assay: Screening of FDA-approved drug library: quantity of released HBV DNA from HepG2.2.15 cells; type: cell-based, Hepatitis B virus (HBV); conditions: treated for 6 days
Description: (§1) After treating cells with drugs such as ciclopirox, entecavir, and/or tenofovir, the supernatant of the cells was collected. After adding to 30 μL of the supernatant 1×PBS of the same volume, 6 μL of 1 N NaOH was added. After incubation at 37° C. for 1 hour, 6 μL of Tris-HCl/HCl was added. Then, the protein was denatured by heat-treating at 98° C. for 5 minutes. After removing the denatured protein through centrifugation, the virus existing in the supernatant was quantified by real-time PCR.
For screening of a drug having inhibitory activity against HBV, an FDA-approved drug library with proven safety was used.
Specifically, after treating HBV-producing HepG2.2.15 cells with about 1,000 drugs at 1 mM every day for 3 days, the quantity of released HBV DNA was measured. After treating the cells with 19 drugs selected through the first screening for 6 days according to the same method, 13 drugs were selected by measuring HBV DNA (second screening). Entecavir, which is used as an HBV drug, was used as a positive control group.

[2] = target: T1, HBV core and capsid proteins (Hepatitis B virus genotype D subtype ayw, UniProt P03146); assay: Expression of core and capsid proteins (immunoblot) for the 19 screened drugs; type: cell-based; conditions: D in FIG. 1
T1 construct: expressed in transfected cells; host or cells: HepG2.2.15
From the text: (§2) Results were expressed as mean±standard deviation and tested by the Student's t-test. *: p<0.05, ** p<0.01.
It was identified to be ciclopirox.

[3] = tested on: core protein 149 (CP149) dimers; assay: Core assembly reaction of purified core protein 149 (CP149) dimers, incl. sucrose gradient ultracentrifugation and electron microscopy; type: biochemical, Hepatitis B virus (HBV)
From the text: In addition, in order to investigate whether the core assembly is inhibited and the protein remains as dimers, reaction products were separated through ultracentrifugation at different sucrose concentrations after the assembly of CP149 under the assembly reaction conditions.

[4] = tested on: HBsAg protein; assay: Secreted HBsAg protein by ELISA in HBV-expressing and HBV-overexpressing cell lines; type: cell-based, Hepatitis B virus (HBV); conditions: ciclopirox concentration gradient
Description: as §2
The secreted HBsAg protein of HBV was analyzed by enzyme-linked immunosorbent assay. Specifically, HBsAg-specific ELISA was used. A supernatant collected from the cells treated with each drug was analyzed using a kit (hepatitis B surface antigen Ab ELISA kit) according to the instruction of the manufacturer (Abnova).

[5] = tested on: HBV core protein; assay: Structural analysis (crystals) of ciclopirox binding site of HBV core protein and Y118 mutation; design: species or system Hepatitis B virus (HBV)
Description: The secondary structure of the protein was computed using STRIDE. […] E and F in FIG. 3 show the ciclopirox-bound and ciclopirox-free sites of chains B and C.
Therefore, the ciclopirox binding site of the HBV core protein was investigated. Specifically, structural analysis of the core protein was conducted by forming crystals.

[6] = tested on: HBV; assay: HBV DNA released out of or remaining in cells at ciclopirox concentration gradient; type: cell-based, Hepatitis B virus (HBV); conditions: HBV-expressing (HepG2.2.15) and HBV-overexpressing cell lines, 6 days, increasing concentration
From the text: Specifically, A and B in FIG. 5 show a result of treating HepG2.2.15 cells and HBV-expressing liver cells with ciclopirox for 6 days and investigating the decrease of HBV DNA at different concentration gradients. C and D FIG. 5 show a result of investigating the inhibitory effect of ciclopirox by extracting HBV DNA from the cells rather than the DNA secreted out of the cells. Specifically, after lysing HepG2.2.15 cells and HBV-expressing liver cells and removing […] using micrococcal nuclease, virus DNA was extracted and its expression level was investigated. As a result, it was confirmed that HBV DNA was decreased according to the concentration gradient of ciclopirox.
as §1
After treating cells with drugs such as ciclopirox, entecavir, and/or tenofovir, the cells were washed with 1×PBS. Then, after lysing the cells and treating with nuclease, HBV DNA was extracted from the cells. […]

[7] = tested on: HBV; assay: HBV infection system in NTCP-HepG2 and NTCP-Huh7 cells; type: cell-based, Hepatitis B virus (HBV); conditions: NTCP-HepG2 and NTCP-Huh7, 14 days, concentration gradient
Description: Specifically, after treating HepG2 and Huh7 cell lines which express a receptor (NTCP) essential for HBV infection with ciclopirox for 6 hours, the supernatant of HepG2.2.15 cells were treated with ciclopirox. 16 hours later, after viral washing, followed by treating with ciclopirox every day for 14 days, the cells and cell supernatant were collected and analyzed. B and C in FIG. 6 show a result of investigating the expression of NTCP in the NTCP cell lines by immunoblot and flow cytometry. D to F in FIG. 6 show the HBV-inhibiting effect of ciclopirox in the virus infection system.
In addition, after treating HBV-infected liver cancer cell lines NTCP-HepG2 and NTCP-Huh7 with ciclopirox, the degree of HBV proliferation was analyzed. After pretreating the liver cancer cell lines with ciclopirox for 6 hours, the cells were incubated with ciclopirox and HBV for 16 hours. Then, the cells were analyzed after culturing for 14 days. This experimental procedure is schematically illustrated in A in FIG. 6. As shown in B and C in FIG. 6, the NTCP protein expressed from the liver cancer cells NTCP-HepG2 and NTCP-Huh7 was analyzed by immunoblot and flow cytometry.

[8] = tested on: HBV; assay: Combination treatment of ciclopirox with entecavir or tenofovir in liver cancer cell lines; type: cell-based, Hepatitis B virus (HBV); conditions: ciclopirox alone or plus 1 mM ETV or 1 mM TDF
Description: After treating with ciclopirox according to a concentration gradient, 1 mM ETV or 1 mM TDF was treated in combination.
After treating cells with drugs such as ciclopirox, entecavir, and/or tenofovir, the cells were washed with 1×PBS. Then, after lysing the cells and treating with nuclease, HBV DNA was extracted from the cells. The DNA was extracted according to the instruction of the manufacturer (InvivoGen).

[9] = tested on: HBV; assay: HBV-expressing mouse (hydrodynamic injection of pAAV HBV 1.2x plasmid); type: in vivo
Description: Specifically, after expressing HBV in mouse by injecting using a hydrodynamic injection method an HBV-expressing pAAV HBV 1.2× plasmid into the mouse tail, the drug was treated every day for 5 days.
Specifically, HBV was produced in vivo by hydrodynamically injecting an HBV-expressing plasmid into mouse tail. Then, after treating with ciclopirox alone, tenofovir alone, or a combination of ciclopirox and tenofovir every day for 5 days, the degree of proliferation of HBV in mouse serum was investigated. The experimental procedure is schematically illustrated in A in FIG. 8.

[10] = tested on: HBV core protein; assay: Core assembly in core protein-expressing and entire HBV protein-expressing cell lines
Description: Specifically, the isolated Cp149 dimeric protein was incubated with a core assembly reaction buffer (150 mM NaCl, 15 mM HEPES) and the drug at 37° C. for 1 hour. Then, after separating the protein on agarose gel, immunoblot was conducted using a rabbit polyclonal anti-HBV core antibody. In addition, for isolation of the core expressed in the cells, the cells were lysed with 1% NP-40 and ultracentrifuged (55,000 rpm) at 20° C. for 8 hours. The assembled core that settled down at the bottom was separated on agarose gel and then immunoblot was conducted using a rabbit polyclonal anti-HBV core antibody.

[11] = sucrose gradient 10% to 50%, ultracentrifugation, treated vs not treated

T1 sequence (P03146 whole entry): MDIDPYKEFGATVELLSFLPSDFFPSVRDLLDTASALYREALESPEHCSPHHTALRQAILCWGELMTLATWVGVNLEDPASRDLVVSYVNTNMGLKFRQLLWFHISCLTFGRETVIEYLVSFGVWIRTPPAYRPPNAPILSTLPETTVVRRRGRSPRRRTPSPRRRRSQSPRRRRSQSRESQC

Cc1cc(C2CCCCC2)n(O)c(=O)c1 [ciclopirox]
inhibition of released HBV DNA (second screening) [1]: consistent effects
expression of the capsid protein [2]: remarkably inhibited
expression of the core protein [2]: without affecting
morphology of the assembled core (electron microscopic images) ([3]; E in FIG. 2): the size of the assembled core is enlarged by ciclopirox and the circular shape is destroyed
assembly of the purified core protein 149 (CP149) dimers ([3]; assembly reaction buffer, 37° C., 1 hour, immunoblot): inhibited as the concentration of ciclopirox increased
core-assembled CP149 (fractions 5-8) [3, 11]: decreased
dimeric CP149 (fractions 1-3) [3, 11]: increased
amount of the released HBsAg protein [4]: no effect
inhibition of core assembly with core protein mutated at Y118 ([5]; D in FIG. 3): mutation at Y118 reduces inhibition of core assembly
binding to the HBV core protein ([5]; crystal structure, hexameric core protein, hydrogen bonding at tyrosine 118): binding directly to the HBV core protein
quantity of HBV DNA released out of cells [6]: decreased
quantity of HBV DNA remaining in cells [6]: decreased
HBV DNA released out of the cells [7]: decrease
HBV cccDNA remaining in the cells [7]: decrease
HBV rcDNA remaining in the cells [7]: decrease
quantity of the HBsAg protein secreted out of the cells [8]: No HBsAg-inhibiting effect
HBV DNA 5 days after the treatment ([9]; ciclopirox alone): almost nonexistent
amount of HBV DNA in blood ([9]; treated every day for 5 days): remarkably reduces
amount of the HBsAg protein in blood ([9]; treated every day for 5 days): no significant difference
quantity of the HBV core protein in liver cells ([9]; treated every day for 5 days): reduced
core assembly in each cell line [10]: inhibited according to the concentration gradient

Reference: patent publication US20210251975A1, “USE OF CICLOPIROX FOR INHIBITING HBV CORE ASSEMBLY” (GWANGJU INSTITUTE OF SCIENCE AND TECHNOLOGY, priority 2018, published 2021)
